What was measured:
[1] = Liquid; for mass density: 298.15 K, 101.33 kPa, Buoyancy - hydrostatic balance
[2] = refractive index (Na D-line) (dimensionless); details: 298.15 K; 101.33 kPa; Liquid; Standard Abbe refractometry

ClCC1CO1 (stereo not drawn) [1-chloro-2,3-epoxypropane]
Details	mass density [kg/m3]	refractive index
[1]	1175.9	–
[2]	–	1.434

[1], Visual
Details	vapor or sublimation pressure [kPa]
370.95 K	55.99
384.15 K	88.66
389.35 K	100

CCCC(=O)OCC1CO1 (stereo not drawn) [glycidyl butyrate]
Details	mass density [kg/m3]	refractive index
[1]	1047	–
[2]	–	1.429

[1], Closed cell (Static) method
Details	vapor or sublimation pressure [kPa]
407.85 K	15.74
420.25 K	23.87
427.85 K	29.87
434.15 K	36.41
439.15 K	41.34
444.25 K	46.67
449.15 K	55.99
449.25 K	54.4
453.85 K	62.67
458.15 K	69.6
460.45 K	74.67
464.55 K	82.67
466.55 K	87.33
467.15 K	88.66
468.75 K	93.33
471.15 K	100
